One may read the pIC50 as the negative decadic logarithm of the IC50, by convention in mol/L.

These results are taken from patent US10464947B2 (Incyte Corporation, priority 2013, dated 2019).

pIC50: −log10 of the molar value.

In the first test the test system is KMS.12.BM cells. As to the kind of experiment: KMS.12.BM Cell Viability Assay (Example B1). It counts as cell-based, human. The settings on record: 3 days, Cell Titer-GLO, read-out: KMS cellular IC50. As to the method:
KMS.12.BM cell line (human myeloma) was purchased from JCRB (Osaka, Japan) and maintained in RPMI with 10% FBS culture medium. To measure the cytotoxic activity of the compounds through ATP quantitation, the KMS.12.BM cells are plated in the RPMI culture medium at 5000 cells/well/per 100 μL into a 96-well polystyrene clear black tissue culture plate (Greiner-bio-one through VWR, NJ), in the presence or absence of a concentration range of test compounds. After 3 days, […] Cell Titer-GLO Luminescent (Promega, Madison, Wis.) cell culture agent is added to each well for 10 min. at room temperature to stabilize the luminescent signal. This determines the number of viable cells in culture based on quantitation of the ATP present, which signals the presence of metabolically active cells.
(In general: ATP-based viability assays read luminescence as a measure of living cells.)
Turning to `Cc1noc(C)c1-c1ccc2[nH]c(=O)n3c2c1OCC3C1CCCO1` (single isomer, unassigned) [Example 18B, 7-(3,5-Dimethylisoxazol-4-yl)-4-(tetrahydrofuran-2-yl)-4,5-dihydroimidazo[1,5,4-de][1,4]benzoxazin-2(1H)-one], the negative-log IC50 (pIC50) was over 6.00. The same measure, in the same setting: for `Cc1noc(C)c1-c1ccc2nc(NC(C)CO)n3c2c1OCC3c1ccccc1` (single isomer, unassigned) [Example 31, 2-{[7-(3,5-Dimethylisoxazol-4-yl)-4-phenyl-4,5-dihydroimidazo[1,5,4-de][1,4]benzoxazin-2-yl]amino}propan-1-ol] the value was over 6.00; for `Cc1noc(C)c1-c1ccc2[nH]c(=O)n3c2c1OC(CO)C3c1ccccn1` (single isomer, unassigned) [Example 62C, 7-(3,5-Dimethylisoxazol-4-yl)-5-(hydroxymethyl)-4-pyridin-2-yl-4,5-dihydroimidazo[1,5,4-de][1,4]benzoxazin-2(1H)-one], over 6.00. Same read-out and setting: for `Cc1noc(C)c1-c1cc(C(C)O)c2[nH]c(=O)n3c2c1OC[C@@H]3c1ccccn1` (single isomer, unassigned) [Example 144B] the value was over 6.00; for `Cc1noc(C)c1-c1ccc2nc(N3CCC(C)(O)C3)n3c2c1OC[C@@H]3c1ccccn1` (single isomer, unassigned) [Example 146B], over 6.00.

Staying with this test, now noted: Homo sapiens, 72 h, 3 days, Cell Titer-GLO, read-out: KMS cellular IC50.
Consider `COC(=O)c1ncccc1C1COc2c(-c3c(C)noc3C)ccc3[nH]c(=O)n1c23` (racemic) [Example 132, Methyl 3-[7-(3,5-dimethylisoxazol-4-yl)-2-oxo-1,2,4,5-tetrahydroimidazo[1,5,4-de][1,4]benzoxazin-4-yl]pyridine-2-carboxylate], for which the pIC50 was over 6.00.

With `Cc1noc(C)c1-c1ccc2[nH]c(=O)n3c2c1OCC3C1CCCO1` (single isomer, unassigned) [Example 18A, 7-(3,5-Dimethylisoxazol-4-yl)-4-(tetrahydrofuran-2-yl)-4,5-dihydroimidazo[1,5,4-de][1,4]benzoxazin-2(1H)-one], the pIC50 was over 6.00. On the same count and under the same terms, for `Cc1noc(C)c1-c1ccc2[nH]c(=O)n3c2c1OC(C(=O)NCCO)C3c1ccccc1` (single isomer, unassigned) [Example 48B, 7-(3,5-Dimethylisoxazol-4-yl)-N-(2-hydroxyethyl)-2-oxo-4-phenyl-1,2,4,5-tetrahydroimidazo[1,5,4-de][1,4]benzoxazine-5-carboxamide] the value was 5.00 to 6.00; for `Cc1noc(C)c1-c1ccc2[nH]c(=O)n3c2c1OC(CO)C3c1ccccn1` (single isomer, unassigned) [Example 62B, 7-(3,5-Dimethylisoxazol-4-yl)-5-(hydroxymethyl)-4-pyridin-2-yl-4,5-dihydroimidazo[1,5,4-de][1,4]benzoxazin-2(1H)-one], over 6.00; for `Cc1noc(C)c1-c1cc(Br)c2[nH]c(=O)n3c2c1OCC3c1ccccn1` (single isomer, unassigned) [Example 267B, 9-bromo-7-(3,5-dimethylisoxazol-4-yl)-4-pyridin-2-yl-4,5-dihydroimidazo[1,5,4-de][1,4]benzoxazin-2(1H)-one], over 6.00.

For the compound `Cc1noc(C)c1-c1ccc2[nH]c(=O)n3c2c1OCC3c1ccccc1` (stereo not shown) [Example 1, 7-(3,5-Dimethylisoxazol-4-yl)-4-phenyl-4,5-dihydroimidazo[1,5,4-de][1,4]benzoxazin-2(1H)-one], the pIC50 was over 6.00.

For the compound `COc1cccc(C2COc3c(-c4c(C)noc4C)ccc4[nH]c(=O)n2c34)c1` (stereo not shown) [Example 6, 7-(3,5-Dimethylisoxazol-4-yl)-4-(3-methoxyphenyl)-4,5-dihydroimidazo[1,5,4-de][1,4]benzoxazin-2(1H)-one], the pIC50 was over 6.00.

With `Cc1n[nH]cc1-c1ccc2[nH]c(=O)n3c2c1OCC3c1ccccc1` (stereo not shown) [Example 12, 7-(3-Methyl-1H-pyrazol-4-yl)-4-phenyl-4,5-dihydroimidazo[1,5,4-de][1,4]benzoxazin-2(1H)-one], the negative-log IC50 (pIC50) was 5.00 to 6.00. Same read-out and setting: the figure for `Cc1noc(C)c1-c1ccc2[nH]c(=O)n3c2c1OCC3c1cccc[n+]1[O-]` (stereo not shown) [Example 16, 7-(3,5-Dimethylisoxazol-4-yl)-4-(1-oxidopyridin-2-yl)-4,5-dihydroimidazo[1,5,4-de][1,4]benzoxazin-2(1H)-one] is over 6.00; for `Cc1noc(C)c1-c1ccc2[nH]c(=O)n3c2c1OCC3C1CCCCC1` (stereo not shown) [Example 17, 4-Cyclohexyl-7-(3,5-dimethylisoxazol-4-yl)-4,5-dihydroimidazo[1,5,4-de][1,4]benzoxazin-2(1H)-one] it is over 6.00; for `Cc1noc(C)c1-c1ccc2[nH]c(=O)n3c2c1OCC3c1ccc(F)cn1` (stereo not shown) [Example 19, 7-(3,5-Dimethylisoxazol-4-yl)-4-(5-fluoropyridin-2-yl)-4,5-dihydroimidazo[1,5,4-de][1,4]benzoxazin-2(1H)-one] it is over 6.00.

Turning to `CCNC(=O)COc1ccccc1C1COc2c(-c3c(C)noc3C)ccc3[nH]c(=O)n1c23` (stereo not shown) [Example 22, 2-{2-[7-(3,5-Dimethylisoxazol-4-yl)-2-oxo-1,2,4,5-tetrahydroimidazo[1,5,4-de][1,4]benzoxazin-4-yl]phenoxy}-N-ethylacetamide], the pIC50 was over 6.00.

As to `CCOC(=O)C1Oc2c(-c3c(C)noc3C)ccc3[nH]c(=O)n(c23)C1c1ccccc1` (stereo not shown) [Example 23, Ethyl 7-(3,5-dimethylisoxazol-4-yl)-2-oxo-4-phenyl-1,2,4,5-tetrahydroimidazo[1,5,4-de][1,4]benzoxazine-5-carboxylate], the pIC50 was over 6.00. On the same count and under the same terms, the figure for `Cn1nccc1-c1ccc2[nH]c(=O)n3c2c1OCC3c1ccccc1` (stereo not shown) [Example 35, 7-(1-Methyl-1H-pyrazol-5-yl)-4-phenyl-4,5-dihydroimidazo[1,5,4-de][1,4]benzoxazin-2(1H)-one] is over 6.00.

For the compound `Cn1nccc1-c1cc(Br)c2[nH]c(=O)n3c2c1OCC3c1ccccc1` (stereo not shown) [Example 36, 9-Bromo-7-(1-methyl-1H-pyrazol-5-yl)-4-phenyl-4,5-dihydroimidazo[1,5,4-de][1,4]benzoxazin-2(1H)-one], the pIC50 was over 6.00.

Still in this test, the particulars now being: Homo sapiens, KMS-12-BM, 72 h, 3 days, Cell Titer-GLO, read-out: KMS cellular IC50.
As to `Cc1noc(C)c1-c1ccc2c3c1CCC(c1ccccc1)n3c(=O)n2C` (racemic) [Example 121, 7-(3,5-Dimethylisoxazol-4-yl)-1-methyl-4-phenyl-5,6-dihydro-4H-imidazo[4,5,1-ij]quinolin-2(1H)-one], the negative logarithm of the IC50 (pIC50) was over 6.00.

Consider `Cc1noc(C)c1-c1ccc2[nH]c(=O)n3c2c1OCC3c1cccnc1C#N` (racemic) [Example 126, 3-[7-(3,5-Dimethylisoxazol-4-yl)-2-oxo-1,2,4,5-tetrahydroimidazo[1,5,4-de][1,4]benzoxazin-4-yl]pyridine-2-carbonitrile], for which the negative-log IC50 (pIC50) was over 6.00. For `Cc1noc(C)c1-c1ccc2nc(N3CCC(C)(O)C3)n3c2c1OC[C@@H]3c1ccccn1` (mixture of isomers) [Example 146C, 1-[(4S)-7-(3,5-Dimethylisoxazol-4-yl)-4-pyridin-2-yl-4,5-dihydroimidazo[1,5,4-de][1,4]benzoxazin-2-yl]-3-methylpyrrolidin-3-ol], the pIC50 was over 6.00. Still for that read-out and setting: for `Cc1noc(C)c1-c1ccc2[nH]c(=O)n3c2c1OC(C(=O)N(C)C)C3c1ccccc1` (single isomer, unassigned) [Example 47B, 7-(3,5-Dimethylisoxazol-4-yl)-N,N-dimethyl-2-oxo-4-phenyl-1,2,4,5-tetrahydroimidazo[1,5,4-de][1,4]benzoxazine-5-carboxamide] the value was 5.00 to 6.00; for `Cc1noc(C)c1-c1ccc2[nH]c(=O)n3c2c1OC(C)(C)C3c1ccccn1` (single isomer, unassigned) [Example 61A, 7-(3,5-Dimethylisoxazol-4-yl)-5,5-dimethyl-4-pyridin-2-yl-4,5-dihydroimidazo[1,5,4-de][1,4]benzoxazin-2(1H)-one], over 6.00.

For `Cc1noc(C)c1-c1ccc2[nH]c(=O)n3c2c1OCC3C1CCCCN1` (single isomer, unassigned) [Example 63A, 7-(3,5-Dimethylisoxazol-4-yl)-4-piperidin-2-yl-4,5-dihydroimidazo[1,5,4-de][1,4]benzoxazin-2(1H)-one 2,2,2-trifluoroacetate], the pIC50 is 5.00 to 6.00. Still for that read-out and setting: the figure for `Cc1noc(C)c1-c1ccc2nc(N3CCC(C)(O)C3)n3c2c1OC[C@@H]3c1ccccn1` (single isomer, unassigned) [Example 146A] is over 6.00; for `Cc1noc(C)c1-c1cc(Cl)c2[nH]c(=O)n3c2c1OCC3c1ccccn1` (single isomer, unassigned) [Example 266A, 9-chloro-7-(3,5-dimethylisoxazol-4-yl)-4-pyridin-2-yl-4,5-dihydroimidazo[1,5,4-de][1,4]benzoxazin-2(1H)-one] it is over 6.00; for `CCOC(=O)C1Oc2c(-c3c(C)noc3C)ccc3[nH]c(=O)n(c23)C1c1ccccn1` (stereo not shown) [Example 20, Ethyl 7-(3,5-dimethylisoxazol-4-yl)-2-oxo-4-pyridin-2-yl-1,2,4,5-tetrahydroimidazo[1,5,4-de][1,4]benzoxazine-5-carboxylate] it is over 6.00. On the same count and under the same terms, the figure for `Cc1noc(C)c1-c1ccc2nc(NC(C)(C)CO)n3c2c1OCC3c1ccccc1` (stereo not shown) [Example 33, 2-{[7-(3,5-Dimethylisoxazol-4-yl)-4-phenyl-4,5-dihydroimidazo[1,5,4-de][1,4]benzoxazin-2-yl]amino}-2-methylpropan-1-ol] is 5.00 to 6.00; for `Cc1cc(-c2ccnn2C)c2c3c1[nH]c(=O)n3C(c1ccccc1)CO2` (stereo not shown) [Example 37, 9-Methyl-7-(1-methyl-1H-pyrazol-5-yl)-4-phenyl-4,5-dihydroimidazo[1,5,4-de][1,4]benzoxazin-2(1H)-one] it is over 6.00.
